Assay results taken from PubChem BioAssay (NCI).
“And” between values parts separate entries of the source, which are not always exact repeats. Identical values can stand only once.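 A five-concentration, 48-hour dose response in 96-well plates underlies each endpoint, interpolated linearly between surrounding concentrations. At the GI50, growth is halved. TGI is the concentration that stops growth completely.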

Columns and labels:
Test in all cases: NCI anticancer screen, dose series, 48 h
OVCAR-3 ovarian = tested on: OVCAR-3 ovarian
KM12 colon = tested on: KM12 colon
SF-295 CNS = tested on: SF-295 CNS
SK-MEL-5 melanoma = tested on: SK-MEL-5 melanoma
BT-549 breast = tested on: BT-549 breast
SF-268 CNS = tested on: SF-268 CNS
UO-31 renal = tested on: UO-31 renal
NCI-H226 lung = tested on: NCI-H226 lung
T-47D breast = tested on: T-47D breast
HS 578T breast = tested on: HS 578T breast

SMILES	GI50 (OVCAR-3 ovarian) [µM]	TGI (OVCAR-3 ovarian)	GI50 (KM12 colon) [µM]	TGI (KM12 colon)	GI50 (SF-295 CNS) [µM]	TGI (SF-295 CNS)	GI50 (SK-MEL-5 melanoma) [µM]	TGI (SK-MEL-5 melanoma)	GI50 (BT-549 breast) [µM]	TGI (BT-549 breast)	GI50 (SF-268 CNS) [µM]	TGI (SF-268 CNS)	GI50 (UO-31 renal) [µM]	TGI (UO-31 renal)	GI50 (NCI-H226 lung) [µM]	TGI (NCI-H226 lung)	GI50 (T-47D breast) [µM]	TGI (T-47D breast)	GI50 (HS 578T breast) [µM]	TGI (HS 578T breast)
COc1ccc(NC(=O)/C=C(C)/C=C/C=C(C)/C=C/C2=C(C)CCCC2(C)C)cc1	2.64	5.9 µM	4.4	14.5 µM	13.3	27.2 µM	9.06	21.1 µM	27.2	43.3 µM	4.95	17.3 µM	10.8	25.4 µM	2.83	6.7 µM	3.75	16.1 µM	9.42	39.8 µM
CN(C)c1nc(=NCc2ccco2)ss1		63 µM		> 55.7 µM		> 61.4 µM		> 100 µM		38.4 µM		51.8 µM		50.1 µM		> 91.5 µM		20.1 µM		78 µM
CSc1ncc(Br)c(Sc2nc(N)nc3nc[nH]c23)n1	3.32	11.1 µM	3.63	22.7 µM	1.15	> 100 µM	3.12	36.1 µM	2.64	> 100 µM	3.6	85.6 µM	1.94	11.2 µM	2.65	29.5 µM	1.95	21.2 µM	6.71	> 100 µM
COC(=O)C(CCC(=O)CCl)N1C(=O)c2ccccc2C1=O (stereo not given)		16.7 µM		36.9 µM		35.2 µM		16.1 µM		21.8 µM		28.4 µM		24.2 µM		29.9 µM		26.8 µM		32.4 µM
O=C(Nc1ccc(-n2ccc3c(NC(=O)c4ccccc4)ncnc32)cc1)c1cccc(C(F)(F)F)c1	4.37	20.9 µM	0.626	16.7 µM	1.07	16.9 µM	0.232	15.8 µM	9.57	30 µM	1.16	24.5 µM	3.42	21.7 µM	6.14	26.1 µM	5.82	30.6 µM	3.65	33.3 µM
CCOc1ccc2c(c1)C(=O)c1c-2n(CCCBr)c(=O)c2cc([N+](=O)[O-])ccc12	23.2	> 100 µM	56	> 100 µM	12.3	> 100 µM	8.74	25.7 µM	28.8	> 100 µM	5.1	> 100 µM	2.9	13.6 µM	5.64	> 100 µM	0.55	9.12 µM	> 100	> 100 µM
CC1=C2C(=CC(C)(C)[C@@H]2O)C(=O)[C@](C)(O)C12CC2	0.00835	0.0327 µM and 0.0422 µM	0.0205	0.123 µM and 0.411 µM	0.026	0.11 µM and 0.0503 µM	0.0159	0.0358 µM and 0.0269 µM	0.0305	0.107 µM and 0.0788 µM	0.00973	0.0727 µM and 0.0659 µM	0.0174	0.0655 µM and 0.0768 µM	0.0709	0.232 µM and 0.171 µM	0.0489	0.359 µM and 0.0974 µM	0.0276	0.0855 µM and 0.0395 µM
CC(C)c1nc(N(C)S(C)(=O)=O)nc(-c2ccc(F)cc2)c1/C=C/[C@@H](O)C[C@@H](O)CC(=O)O	> 100	> 100 µM	> 100	> 100 µM	32.7	> 100 µM	52.7	> 100 µM	> 100	> 100 µM	28.3	> 100 µM	> 100	> 100 µM	> 100	> 100 µM	> 100	> 100 µM	51.9	> 100 µM
COc1cccc(CN(C)c2ccc(CO)c(Cl)c2)c1	2.31	10.6 µM	29.8	> 100 µM	3.71	> 66.2 µM	7.5	21.4 µM	19.8	80 µM	44.5	> 100 µM	14.5	> 83.7 µM	0.0588	0.202 µM	0.298	2.86 µM	43.6	> 100 µM
CCCn1cnc2c(SCC(=O)O)nc(N)nc21		> 100 µM		> 100 µM		> 100 µM		> 100 µM		> 100 µM		> 100 µM		> 100 µM		> 100 µM		> 100 µM		> 100 µM
CCN(Cc1cc(F)ccc1F)c1ccc(CO)c(Cl)c1	0.238	0.861 µM	14.5	30.8 µM	0.283	13.2 µM	10.8	22.9 µM	15.4	30.8 µM	17.3	40.6 µM	2.02	23.4 µM	0.0484	0.178 µM	0.116	1.9 µM	16.2	47.4 µM
Cc1cc(Cl)ccc1OCC(=O)Nc1nc(N)nc(N)n1		> 100 µM		> 100 µM		> 100 µM		> 100 µM		> 100 µM		> 100 µM		> 100 µM		> 100 µM		> 100 µM		> 100 µM
COC(=O)c1cc2c(cc1Cl)SC1=NN(C)S(=O)N1S2(=O)=O (stereo not given)	> 100	> 100 µM	> 100	> 100 µM	> 100	> 100 µM	> 100	> 100 µM	> 100	> 100 µM	> 100	> 100 µM	70.2	> 100 µM	> 100	> 100 µM	> 100	> 100 µM	> 100	> 100 µM
NCCCCC1NC(=O)C(CC(=O)O)NC(=O)CNC(=O)C(CCCN=C(N)N)NC(=O)C(N)CSSCC(C(=O)O)NC(=O)C(CC(=O)O)NC(=O)C2CCCN2C(=O)CNC1=O (stereo not given)	> 100	> 100 µM	> 100	> 100 µM	> 100	> 100 µM	> 100	> 100 µM	> 100	> 100 µM	> 100	> 100 µM	> 100	> 100 µM	> 100	> 100 µM	> 100	> 100 µM	> 100	> 100 µM
